{
  "source": "paper PMC3575409",
  "about": "“Identification of a Novel Protein-Protein Interaction Motif Mediating Interaction of GPCR-Associated Sorting Proteins with G Protein-Coupled Receptors” (PLoS ONE, 2013)",
  "key": {"[1]": {"target": "T1, binding of full-length ADRB2 to the central domain of GASP-1 (Homo sapiens, UniProt P07550)", "T1 construct": "Both ADRB2 and CNR2 full-length receptors were produced in P. pastoris and purified as previously described; implied only by the HisTrap purification; made in house; host or cells: ADRB2: Pichia pastoris; GST-GASP-1(380-1073): E. coli BL21", "assay": "SPR competition, ADRB2 / central domain of GASP-1", "conditions": "1.1 µM ADRB2, GASP peptide 250 µM, control peptide up to 250 µM", "experimental": "(§1) The human ADRB2 and CNR2 receptors were produced using the P. pastoris expression system as previously described, [16]. After methanol-induced receptor expression, cells were washed with PBS pH 7.0 and resuspended in ice-cold buffer A (50 mM Tris-HCl pH 7.4, 500 mM NaCl, 10% glycerol, 5 mM EDTA, 1 mM PMSF, 2 mM DDT). Cells were then lysed with two cycles of 20 s shaking and 20 s cooling on ice using 0.5 mm glass beads in a FastPrep 24 device. Unbroken cells and cell debris were removed by centrifugation (3000 g, 5 min, 4°C) and the membrane fraction from the supernatant was pelleted by ultracentrifugation (100,000 g, 45 min, 4°C). Membranes were resuspended in buffer B (50 mM Tris-HCl pH 7.4, 500 mM NaCl, 10% glycerol, 1 mM PMSF, 2 mM DTT) using a Dounce homogenizer, and then successively washed with urea (buffer B with 4 M urea) and NaOH (buffer B with 10 mM NaOH), and ultracentrifuged (100,000 g, 45 min, 4°C). Finally membranes were resuspended in buffer B and quantified with the bicinchoninic acid (BCA) method (Pierce). […]\n(§2) The binding curves were double referenced by (i) subtraction of the signal from the GST captured flow cell from the signal of the flow cell with captured central domain of GASP-1 and (ii) subtraction of the appropriate blank injection from the receptor injections with or without peptide. […] Endpoint responses were read 20 s after injection end. […]"}, "[2]": {"target": "T2, binding of full-length CNR2 to the central domain of GASP-1 (Homo sapiens, UniProt P34972)", "T2 construct": "Both ADRB2 and CNR2 full-length receptors were produced in P. pastoris and purified as previously described; implied only by the HisTrap purification; made in house; host or cells: CNR2: Pichia pastoris; GST-GASP-1(380-1073): E. coli BL21", "T2 sequence (P34972 whole entry, the tested form may be a part)": "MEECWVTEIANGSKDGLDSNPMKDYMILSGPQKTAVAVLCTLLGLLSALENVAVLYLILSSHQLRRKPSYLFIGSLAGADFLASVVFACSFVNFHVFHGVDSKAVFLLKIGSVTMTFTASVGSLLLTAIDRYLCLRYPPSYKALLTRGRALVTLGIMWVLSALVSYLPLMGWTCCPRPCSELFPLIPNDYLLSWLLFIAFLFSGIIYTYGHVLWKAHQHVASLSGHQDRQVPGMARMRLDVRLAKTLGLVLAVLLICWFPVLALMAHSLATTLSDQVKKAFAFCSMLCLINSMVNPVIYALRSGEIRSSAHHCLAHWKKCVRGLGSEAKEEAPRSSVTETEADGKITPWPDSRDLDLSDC", "assay": "SPR competition, CNR2 / central domain of GASP-1", "conditions": "0.30 µM CNR2, GASP peptide 250 µM, control peptide up to 250 µM", "experimental": "as §1, §2"}, "[3]": {"tested_on": "interaction between GASP-2 and GST-fused ADRB1 C-tail", "assay": "GST-pull down competition, GASP-2 / ADRB1 C-tail", "format": "binding", "experimental": "(§3) GST-fusion proteins were immobilized on glutathione-coupled Sepharose beads (GE Healthcare) for 1 h at 4°C and incubated with [^35S]-labelled in vitro translated GASP proteins or their truncated or mutated forms in ice-cold binding buffer containing: 20 mM Tris-HCl pH 7.4, 150 mM NaCl, 1 mM EDTA, 1 mM DTT, 10% glycerol and 1% Triton X-100. The mixture was incubated for 1 h at 4°C with gentle rocking. The beads were washed five times with the same ice-cold buffer, resuspended in 30 µl SDS-PAGE sample buffer, incubated 10 min at 65°C, and pelleted for 60 s at 3000 g. The supernatants were then analyzed by SDS-PAGE, the gels were stained with Coomassie blue to visualize GST-fusion proteins, dried and analyzed using a Phosphor-imager (Personal Molecular Imager FX, Biorad) to visualize [^35S]-labelled GASPs. Quantification was performed with the Quantity One software (Biorad). GST-pull down quantification data were analyzed using GraphPad Prism 4.03 (GraphPad Software). Quantifications presented are means of at least three independent experiments.\n(§4) GASP peptide or its corresponding scrambled version was incubated with GST-fused proteins and [^35S]-labelled GASPs and the binding was analyzed as described for the GST-pull down assay. […]"}, "[4]": {"tested_on": "interaction between GASP-1 and GST-fused ADRB1 C-tail", "assay": "GST-pull down competition, GASP-1 / ADRB1 C-tail", "format": "binding", "conditions": "150 µM peptide", "experimental": "as §3, §4"}, "[5]": {"tested_on": "interaction between GASP-7 and GST-fused ADRB1 C-tail", "assay": "GST-pull down competition, GASP-7 / ADRB1 C-tail", "format": "binding", "conditions": "150 µM peptide", "experimental": "as §3, §4"}},
  "note": "“Also recorded” adds a separate entry of the source.",
  "data": [
    {"sequence": "RVKQEPRFEEEVIIGAAAAAEKEA [control peptide, control peptide where the conserved SWFW motif was changed to AAAA]", "values": [
      {"measurement": "effect on binding of ADRB2 to the central domain of GASP-1", "setting": "[1]", "result": "only had a minor effect on the interaction"},
      {"measurement": "effect on binding of CNR2 to the central domain of GASP-1", "setting": "[2]", "result": "only had a minor effect on the interaction"}
    ]},
    {"sequence": "AVEWIQEVFWEKRKPEEFGIERAS [scrambled peptide, scrambled version of GASP peptide]", "values": [
      {"measurement": "effect on the interaction between GASP-2 and ADRB1 C-tail", "setting": "[3]; 150 µM peptide", "result": "did not"},
      {"measurement": "effect on the interaction between GASP-2 and ADRB1 C-tail", "setting": "[3]; dose-effect experiment, peptide 1 to 250 µM (scrambled: highest dose)", "result": "did not affect this interaction; also recorded: no significant effect"},
      {"measurement": "effect on the interaction between GASP-1 and ADRB1 C-tail", "setting": "[4]", "result": "did not"},
      {"measurement": "effect on the interaction between GASP-7 and ADRB1 C-tail", "setting": "[5]", "result": "did not"}
    ]}
  ]
}
